From patent US7524973B2, “Nitrate esters of phenylaminothiophenacetic acid derivatives” (Altana Pharma AG, priority 2003, dated 2009) come the findings set out here.

One assay deals with T1, COX-1 (Homo sapiens, UniProt P23219).
T1 construct: Fresh blood was collected into vacutainers containing no anticoagulants; from tissue; host or cells: fresh whole blood without anticoagulant, allowed to clot
The experiment in a line: In vitro Cox-1 assay (whole blood, TxB2). The format is cell-based. Conditions: fresh blood without anticoagulant, clotting 1 h at 37° C., TxB2 immunoassay; read-out: Inhibition of COX-1 activity [measured as pIC50] (converted). The procedure:
Fresh blood was collected into vacutainers containing no anticoagulants. Aliquots of 450 μl were immediately transferred to deep well plates preloaded with 1 μl of either DMSO or a test compound at final concentration of 100 μM-10 nM. In addition 50 μl of Hydroxylamine/PBS were added and the tubes were vortexed and incubated at 37° C. for 1 h to allow the blood to clot. At the end of incubation, serum was obtained by centrifugation (2000 g/5 min) and the supernatant was assayed for TxB2 using a immunoassay kit (RD Systems, Germany) according to the manufactures instruction.
(§1) The data were analysed from 2-3 independent dose response curves with a nonlinear estimation program using GRAPHPAD/Prism and given as pIC50

A further assay deals with T2, COX-2 (Homo sapiens, UniProt P35354).
T2 construct: Fresh blood was collected in heparinized (8 U/ml, Roche, Switzerland) tubes; from tissue; host or cells: heparinized fresh whole blood stimulated with LPS for 24 h
T2 sequence (P35354 18-604): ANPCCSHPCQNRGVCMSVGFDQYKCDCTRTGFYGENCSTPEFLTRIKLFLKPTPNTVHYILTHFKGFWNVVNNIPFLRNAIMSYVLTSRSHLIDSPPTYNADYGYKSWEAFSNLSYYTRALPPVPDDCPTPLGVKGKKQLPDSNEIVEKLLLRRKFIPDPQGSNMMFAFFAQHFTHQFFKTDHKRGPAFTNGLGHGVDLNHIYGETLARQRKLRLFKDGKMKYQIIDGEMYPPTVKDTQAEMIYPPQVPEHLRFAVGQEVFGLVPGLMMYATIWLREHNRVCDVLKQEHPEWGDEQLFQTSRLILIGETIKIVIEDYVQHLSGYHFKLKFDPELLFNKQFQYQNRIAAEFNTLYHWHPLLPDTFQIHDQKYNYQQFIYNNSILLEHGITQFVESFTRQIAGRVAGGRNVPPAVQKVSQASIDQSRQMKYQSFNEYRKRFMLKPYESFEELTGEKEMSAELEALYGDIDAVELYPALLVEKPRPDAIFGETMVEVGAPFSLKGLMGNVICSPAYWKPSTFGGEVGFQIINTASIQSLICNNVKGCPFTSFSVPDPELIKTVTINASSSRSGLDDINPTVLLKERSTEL
The experiment in a line: In vitro Cox-2 assay (LPS-stimulated whole blood, PGE2). The format is cell-based. Conditions: heparinized blood, LPS 24 h, PGE2 immunoassay; read-out: Inhibition of COX-2 activity [measured as pIC50] (converted). The procedure:
Fresh blood was collected in heparinized (8 U/ml, Roche, Switzerland) tubes by venipuncture from both male and female volunteers with consent The subjects had no apparent inflammatory conditions and had not taken any NSAIDs for the last 7 days prior to blood collection. 450 μl aliquots of blood were incubated in deep wells with either 1 μl vehicle (DMSO) or 1 μl of test compound at a final concentration varying from 100 μM-10 nM for 15 min at 37° C. This was followed by incubation of the blood with 50 μl lipopolysaccharide (LPS, Sigma, Germany) 10 μg/ml in 0.1% Hydroxylamine/PBS (Sigma) for 24 h. At the end of incubation the blood was centrifuged at 2000 g for 5 min and […] supernatant was assayed for PGE2 using a immunoassay kit (RD Systems, Germany )
as §1

T1 sequence (P23219 24-599): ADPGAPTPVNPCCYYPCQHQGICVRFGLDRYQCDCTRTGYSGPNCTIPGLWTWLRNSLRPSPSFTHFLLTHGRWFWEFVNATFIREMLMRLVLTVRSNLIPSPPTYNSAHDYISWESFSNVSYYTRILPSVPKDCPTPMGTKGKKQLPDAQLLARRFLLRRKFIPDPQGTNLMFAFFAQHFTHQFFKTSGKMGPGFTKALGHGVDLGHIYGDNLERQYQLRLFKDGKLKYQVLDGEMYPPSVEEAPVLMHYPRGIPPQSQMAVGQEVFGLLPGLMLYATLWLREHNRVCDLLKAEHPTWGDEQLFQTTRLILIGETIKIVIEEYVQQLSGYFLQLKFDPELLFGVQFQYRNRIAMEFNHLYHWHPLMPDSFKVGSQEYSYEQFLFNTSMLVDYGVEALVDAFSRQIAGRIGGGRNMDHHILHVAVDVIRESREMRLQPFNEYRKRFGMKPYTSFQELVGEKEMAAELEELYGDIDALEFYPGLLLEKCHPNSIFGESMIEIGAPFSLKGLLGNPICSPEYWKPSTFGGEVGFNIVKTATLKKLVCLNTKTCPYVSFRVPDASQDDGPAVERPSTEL

Regarding `O=C(Cc1cscc1Nc1c(Cl)cccc1Cl)OCCCCO[N+](=O)[O-]` [Compound 1, [4-(2,6-Dichlorophenylamino)-thiophen-3-yl]-acetic acid 4-nitrooxybutyl ester], the IC50 at COX-1 is 89.1 nM; on COX-2 it was 72.4 nM.
